Measured values reported in patent US11878059B2, “Sonodynamic therapy” (UNIVERSITY OF ULSTER, priority 2017, dated 2024).

Experiments:
BxPc-3 [1] = assay: MTT cytotoxicity of Biotin-Gem and Biotin-Gem-RB in BxPC-3 cells; type: cell-based, human; conditions: 48 h incubation
Protocol: To ensure the antimetabolite efficacy of Biotin-Gem and Biotin-Gem-RB were unaffected by chemical modification, the cytotoxicity of the conjugates was determined in the human pancreatic adenocarcinoma cell line BxPc-3. […] These cells were seeded into 96 well plates at a density of 5000 cells per well. The plates were then incubated for 24 hours followed by the addition of 100 uL of media spiked with either Gem, Biotin-Gem or Biotin-Gem-RB. The concentrations used for Biotin-Gem were […] while for Biotin-Gem-RB, concentrations of 0.01 μM, 0.05 μM, 0.1 μM, 0.5 μM, 1 μM, 5 μM and 10 μM were investigated. Corresponding concentrations of Gem were used in each case. The cells were then further incubated for 48 hours before cell viability was determined using an MTT assay.

Mia-PaCa-2 = assay: MTT assay biotin-GEM-RB vs gemcitabine hydrochloride, Mia-PaCa-2; type: cell-based, human; conditions: Mia-PaCa-2, 0-1000 μM, 48 h
Protocol: (§1) Human primary pancreatic adenocarcinoma cell lines BxPc-3, Panc-1 and Mia-PaCa-2 were maintained in RPMI 1640 medium which was supplemented with 100 U/mL penicillin, […] streptomycin, and 10% fetal bovine serum (FBS) and Dulbecco's Modified Eagle's Medium (DMEM) containing 1 g/L glucose and supplemented with 100 U/mL penicillin, […] streptomycin, and 10% fetal bovine serum (FBS) respectively in a humidified 5% CO2 atmosphere at 37° C. These cells were seeded into 96 well plates at a density of 5000 cells per well. The plates were then incubated for 24 hours followed by the addition of 100 μL of media spiked with Gem or Biotin-Gem-RB at concentrations ranging from 0.001-1000 μM. The cells were then further incubated for 48 hours before cell viability was determined by an MTT assay.

Panc-1 = assay: MTT assay biotin-GEM-RB vs gemcitabine hydrochloride, Panc-1; type: cell-based, human
Protocol: as §1

BxPc-3 [2] = assay: MTT assay biotin-GEM-RB vs gemcitabine hydrochloride, BxPc-3; type: cell-based, human; conditions: BxPc-3, 0-1000 μM, 48 h
Protocol: as §1

MCF-7 cells = assay: Colony forming assay in MCF-7 cells; type: cell-based, human; conditions: +US (1 MHz, 30 s, 3 Wcm^−2); PTX 1 nM, Dox 10 nM, RB 10 nM, 3 hours
Protocol: FIG. 16 is a plot showing % survival fraction from a MCF-7 colony forming assay. Cells following treatment with PTX/Dox/RB alone (Drug combo) or following treatment with ultrasound (Drug Combo+US). After treatment cells were incubated for 8 days followed by fixation and staining. Crystal violet staining was quantified via Image J.
In this study, the concentration of each individual drug used was intentionally sub-lethal, so that any benefit obtained by the combination treatment could easily be identified. In addition, as the action of ultrasound can influence the cellular uptake of drugs as a result of sonoporation, cells treated with Dox or PTX were also exposed to ultrasound, to control for any potential ultrasound mediated effects on cell viability as a result of sonoporation. Following treatment, cell viability was determined using a colony forming assay.
MCF-7 cells were seeded (5×10^3) in a 96 well plate, 24 hours later cells were treated with free drug as a single treatment of PTX (1 nM), Dox (10 nM), RB (10 nM) or combination treatment for 3 hours followed by media replacement. Selected wells were treated with ultrasound delivered using a Sonidel SP100 sonoporator (1 MHz, 30 seconds, 3 Wcm^−2, duty cycle=50%, and PRF=100 Hz). The following day cells were pooled from 2 wells and seeded in a 6 well plate. Plates were placed in an incubator for 7 days. Media was removed from wells, fixation/staining solution was added at room temperature for 20 minutes. Fixative/staining solution contained: 0.5 g crystal violet (0.05%), 27 ml 37% formaldehyde, 100 ml 10×PBS (X1), 10 mL methanol (1%) and 863 mL of distilled water. Solution was removed and washed under running water. Pictures were taking using a high-resolution camera and colony formation was analysed via Image J.

[3] = Body weight of Mia-PaCa-2 tumour bearing mice (FIG. 11b); type: in vivo, SCID mice; conditions: clinical dose 120 mg/Kg I.P., day 6
Protocol: The microbubble suspension (6.86×10^7±1.99×10^6 MB) was delivered as a 100 uL I.V injection (PTX—2.44±0.37 mg/Kg, GEM—0.5±0.04 mg/Kg, RB—1.85±0.14 mg/Kg). Gemcitabine hydrochloride was dissolved in sterile PBS and administered as a 100 uL I.P injection (120 mg/Kg). Ultrasound treatment was delivered for 3.5 minutes at frequency of 1 MHz, an ultrasound power density of 3.5 W/cm^2 and a duty cycle of 30% immediately after injection and 30 minutes following. Error bars represent±the standard error.
Mia-Paca-2 cells were maintained in DMEM medium and BxPc-3 cells were maintained in RPMI 1640 both supplemented with 100 U/mL penicillin, […] streptomycin, and 10% fetal bovine serum (FBS) in a humidified 5% CO2 atmosphere at 37° C. Cells (5×10^6) were re-suspended in Matrigel® and implanted subcutaneously into the rear dorsum of SCID (C.B-17/IcrHan®Hsd-Prkdcscid) mice. Tumours reached treatable size within 3 weeks. Tumour measurements were taken daily using callipers. Once the tumours had reached an average volume of 150 mm^3 animals were randomly assigned into treatment groups. Animals were anaesthetised by intraperitoneal injection of hypnorm:hypnovel:ice cold sterile water for injection (1:2:1). […] Tumour growth was monitored daily throughout the course of the treatment.

Question: For `Nc1ccn([C@@H]2O[C@H](COC(=O)OCCNC(=O)CCCCC3SCC4NC(=O)NC43)[C@@H](O)C2(F)F)c(=O)n1` (stereo partly drawn) [Biotin-Gem, (2R,3R,5R)-5-(4-amino-2-oxopyrimidin-1(2H)-yl)-4,4-difluoro-3 hydroxytetrahydrofuran-2-yl)methyl (2-(5-(2-oxohexahydro-1H-thieno[3,4-d]imidazol-4-yl)pentanamido)ethyl) carbonate], which “efficacy (cell viability, MTT) compared to Gemcitabine” value (BxPc-3 [1]; 0-100 μM) is on record?
Answer: The value was “no statistically significant difference in efficacy”.

Question: Which results are given for `Nc1ccn([C@@H]2O[C@H](COC(=O)CCCCCCC(=O)NCCN(CCNC(=O)CCCCCCC(=O)NCCOC(=O)c3c(Cl)c(Cl)c(Cl)c(Cl)c3-c3c4cc(I)c(=O)c(I)c-4oc4c(I)c(O)c(I)cc34)CCNC(=O)CCCCC3SCC4NC(=O)NC43)[C@@H](O)C2(F)F)c(=O)n1` (stereo partly drawn) [Biotin-Gem-RB, ((2R,3R, 5R)-5-(4-amino-2-oxopyrimidin-1 (2H)-yl)-4,4-difluoro-3-hydroxytetrahydrofuran-2-yl)methyl 4,11,19-trioxo-15-(2-(5-(2-oxohexahydro-1H-thieno[3,4-d]imidazol-4-yl)pentanamido)ethyl)-1-((2,3,4,5-tetrachloro-6-(6-hydroxy-2,4,5,7-tetraiodo-3-oxo-3H-xanthen-9-yl)benzoyl)oxy)-3,12,15,18-tetraazahexacosan-26-oate]?
Answer: efficacy vs gemcitabine HCl (MTT) (Mia-PaCa-2): no decrease in efficacy; efficacy (cell viability, MTT) compared to Gemcitabine (BxPc-3 [1]; 0.01-10 μM): no statistically significant difference in efficacy; efficacy vs gemcitabine HCl (MTT) (Panc-1; Panc-1, 0-1000 μM, 48 h): no decrease in efficacy; efficacy vs gemcitabine HCl (MTT) (Panc-1; Panc-1, above 10 μM): significant increase in efficacy; efficacy vs gemcitabine HCl (MTT) (BxPc-3 [2]): no decrease in efficacy

Question: For `COc1cccc2c1C(=O)c1c(O)c3c(c(O)c1C2=O)C[C@@](O)(C(=O)CO)C[C@@H]3O[C@H]1C[C@H](N)[C@H](O)[C@H](C)O1` [Dox, doxorubicin], which “reduction of colony number compared to untreated cells” value (from here on “reduction of colony number”) (MCF-7 cells) is on record?
Answer: The value was 29.3%.

Question: With `CC(=O)O[C@H]1C(=O)[C@@]2(C)[C@H]([C@H](OC(=O)c3ccccc3)[C@]3(O)C[C@H](OC(=O)[C@H](O)[C@@H](NC(=O)c4ccccc4)c4ccccc4)C(C)=C1C3(C)C)[C@]1(OC(C)=O)CO[C@@H]1C[C@@H]2O` [PTX, paclitaxel] as the compound, how does the “reduction of colony number” value (MCF-7 cells) read?
Answer: Its value is 7.3%.

Question: Which “reduction of colony number” value (MCF-7 cells) does the source give for `O=C1OC2(c3cc(I)c(O)c(I)c3Oc3c2cc(I)c(O)c3I)c2c(Cl)c(Cl)c(Cl)c(Cl)c21` [RB, Rose Bengal] here?
Answer: The value was 18.8%.

Question: For `Nc1ccn([C@@H]2O[C@H](CO)[C@@H](O)C2(F)F)c(=O)n1` [gemcitabine], which “decrease in body weight” value [3] is on record?
Answer: Its value is 12%.
